# Source: PMC3806773, “Discovery of P1736, a Novel Antidiabetic Compound That Improves Peripheral Insulin Sensitivity in Mice Models” (PLoS ONE, 2013)
# Counter-ions that a name gives are not always drawn. Marks after values point to notes of the source that are not given here.
# Experiments:
# db/db mice [1] = test: Antidiabetic activity in db/db mice, once daily oral dosing; format: in vivo
# Procedure: After two weeks of acclimatization, db/db mice were deprived of food for 4h. Their weights were measured and blood was obtained by retro-orbital puncture for the determination of plasma glucose. The animals were randomized into groups (7-10/group) based on body weight and plasma glucose levels. Animals were dosed orally once a day, between 9.00 -10.00am for 15 consecutive days, with either P1736 (150mg/kg) or metformin (150mg/kg) or 0.5% carboxy methyl cellulose (CMC) vehicle. The dose of 150 mg/kg was chosen for once-a-day dosing of P1736, on the basis of its pharmacokinetic profile and to maintain high plasma concentrations. Body weight was measured daily. On days 10 and 15, blood samples were collected at the end of the 4h fasting after drug administration. Plasma samples were analysed for biochemical parameters, by enzymatic methods using autoanalyser 902(Hitachi instruments, Japan). Plasma adiponectin levels were measured using mouse ELISA kits (Millipore Inc. USA).
# [2] = test system: insulin resistant 3T3 adipocytes; test: Glucose uptake in dexamethasone-induced insulin resistant 3T3 adipocytes; format: cell-based
# Procedure: Fully differentiated 3T3 adipocytes generated in 24-well plates were used after day 8 of differentiation. Insulin resistance was induced essentially as described before. Briefly, adipocytes were incubated with 100 nM dexamethasone for six consecutive days. […].
# Glucose uptake was measured essentially according to the method of Gao et al using ^14C-labeled 2-deoxy glucose as the tracer. Activity in this assay is defined as a statistically significant increase in glucose uptake of minimum 50% compared to the uptake seen in cells exposed to vehicle. Effect of wortmannin on glucose uptake was studied according to the method of Hausdorff et al using 100 nM wortmannin.
# GLUT-4 = GLUT-4 translocation in insulin resistant 3T3 adipocytes (immunofluorescence); settings: 4 days, 200nM insulin stimulated
# Procedure: GLUT-4 translocation was evaluated by the method of Hausdorff et al [14] with a few modifications. Insulin resistant 3T3 adipocytes were prepared in 24-well plates fitted with coverslip inserts. After incubation with compounds, the media was removed. The cells were stimulated with 200nM insulin and processed for immunofluorescence detection using anti-GLUT-4 antibody (1:1000) followed by FITC labeled secondary antibody (1:1000).
# Later the cells were stimulated with 200nmol/l insulin for 25 minutes. Whole cell immunofluorescence assay for GLUT-4 translocation was performed using rabbit antibody against GLUT - 4 followed by incubation with FITC labeled secondary antibody. Confocal images were obtained using Bio-Rad Laser Scanning Microscope.
# [3] = test system: soleus muscles of ob/ob mice; test: Ex vivo muscle glucose uptake in ob/ob mice; settings: for Glucose Uptake in soleus muscle (% Increase): ex vivo after chronic administration
# Procedure: On day 9, food was withheld for 4 h and blood was collected for the analysis of plasma chemistry and plasma insulin levels. On days 12 and 13, 3-4 animals from each group were sacrificed and soleus muscles were excised. Radiolabelled glucose uptake was measured in the isolated soleus muscles by the method of Zierath and colleagues. Plasma Insulin was estimated using mouse ELISA kit (Linco, USA)
# ob/ob mice = test: Antidiabetic activity in ob/ob mice; format: in vivo; settings: 10 days
# db/db mice [4] = test: Dose response experiment in db/db mice, twice daily dosing; format: in vivo; settings: 5 mg/kg twice daily
# Procedure: The doses were given during 8.00-9.00 am and 5.00-6.00 pm daily. On day 15, blood was collected and plasma samples were analysed as described above.
# 3T3-L1 cells = test: Adipogenesis screen; format: cell-based; settings: 1.0 µM, positive control; vehicle induced 7-10%
# Procedure: Adipogenesis screening was carried out essentially according to the method of Choi et al. […] Compounds that caused increase in adipogenesis by more than 5-fold of vehicle (0.1% DMSO) were considered positive and were selected for further screening.
# [5] = 150 mg/kg oral once daily, day 10
# [6] = 150 mg/kg oral once daily, day 15
smiles,measurement,setting,value
"CN(C)C(=N)N=C(N)N [Metformin, Metformin hydrochloride, reference compound]",decrease in plasma triglyceride,db/db mice [1]; [5],18%
same,reduction in plasma glucose,db/db mice [1]; [5],24%
same,decrease in plasma triglyceride,db/db mice [1]; [6],31%
same,reduction in plasma glucose,db/db mice [1]; [6],25%
same,plasma adiponectin levels,"db/db mice [1]; 150 mg/kg oral once daily, vehicle 7.5 ± 0.44",8.9 ± 0.64 µg/mL
same,Liver weight,"db/db mice [1]; 150mg/kg, vehicle 1.8 + 0.10",2.1 + 0.08 gm
same,Plasma ALT,"db/db mice [1]; 150mg/kg, vehicle 91.2 + 12.7",75.3 + 6.4 U/L
same,Plasma AST,"db/db mice [1]; 150mg/kg, vehicle 100.6 + 8.8",101.7 + 8.4 U/L
same,reduction of high initial plasma glucose,"db/db mice [1]; db/db mice with high initial plasma glucose, 150 mg/kg once daily, 10 days",25%
same,effect on glucose uptake,"[2]; 1.0 mM, 4 days exposure",no effect
same,GLUT-4 translocation to plasma membrane,GLUT-4; 1 mM,inactive
same,Plasma Glucose (% Reduction),[3]; 150.0 mg/kg,37%
same,Glucose Uptake in soleus muscle (% Increase),[3]; 150.0 mg/kg,38* %
same,Glucose Uptake in soleus muscle (% Increase),"[3]; 150.0 mg/kg, listed as metformin",38%
same,lowering of plasma insulin levels,ob/ob mice; 150 mg/kg,43%
"CN(CCOc1ccc(CC2SC(=O)NC2=O)cc1)c1ccccn1 (stereo not drawn) [Rosiglitazone, rosiglitazone maleate, reference compound]",weight gain,db/db mice [4]; 15 days,13%
same,decrease in plasma glucose,db/db mice [4]; day 15,60%
same,decrease in plasma triglyceride,db/db mice [4]; day 15,40%
same,decrease in plasma glucose,"db/db mice [4]; day 15, listed as rosiglitazone",about 60%
same,adipogenesis,3T3-L1 cells,> 90%
same,EC50,"[2]; Adipocyte, dose response, insulin resistant adipocytes, read-out: EC50 of increase in glucose uptake",20 nM
same,effect on glucose uptake,[2]; rosiglitazone 0.1 µM,potentiated glucose uptake and re-sensitized the cells
same,GLUT-4 translocation to plasma membrane,GLUT-4; 0.1 µM,caused GLUT-4 translocation
same,Plasma Glucose (% Reduction),[3]; 5.0 mg/kg,49%
same,Glucose Uptake in soleus muscle (% Increase),[3]; 5.0 mg/kg,147** %
same,Glucose Uptake in soleus muscle (% Increase),"[3]; 5.0 mg/kg, listed as rosiglitazone",147%
same,lowering of plasma insulin levels,ob/ob mice; 5 mg/kg,80%
